Experimental data: patent US12391681B2, “(R)-3-(3-chloro-5-fluoro-2-((4-(1h-pyrazol-1-yl)-2-methylquinolin-8-yloxy)methyl)phenyl)morpholine derivatives and related compounds as bradykinin (BK) B2 receptor antagonist for treating skin diseases” (Pharvaris GmbH, priority 2019, dated 2025)
pIC50: −log10 of the molar value.

Molecular target: T1, human bradykinin B2 receptor (hB2R) (Homo sapiens, UniProt P30411)
T1 sequence (P30411 1-391): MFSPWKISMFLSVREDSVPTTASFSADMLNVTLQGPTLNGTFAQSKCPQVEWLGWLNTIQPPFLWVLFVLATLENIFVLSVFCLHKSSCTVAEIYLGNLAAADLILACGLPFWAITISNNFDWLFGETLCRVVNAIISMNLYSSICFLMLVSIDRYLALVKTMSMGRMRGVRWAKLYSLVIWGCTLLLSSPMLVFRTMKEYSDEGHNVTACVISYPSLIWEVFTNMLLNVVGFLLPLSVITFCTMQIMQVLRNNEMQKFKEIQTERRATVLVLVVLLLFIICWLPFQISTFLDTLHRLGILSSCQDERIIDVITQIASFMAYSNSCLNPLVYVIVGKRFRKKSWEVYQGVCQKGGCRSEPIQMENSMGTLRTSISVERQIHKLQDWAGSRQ
Assay: cell-based human bradykinin B2 receptor calcium mobilization (hB2R-CaM) assay
Settings: antagonistic activity; HTS041C cells; bradykinin at EC80; 25 min preincubation at 37° C.; read-out: IC50-value towards human bradykinin B2 receptor (hB2R)
Excerpt: The following cell-based human bradykinin B2 receptor calcium mobilization (hB2R-CaM) assay was used to determine the antagonistic activity of compounds selected from the example compounds Nos. 1 to 13 towards human bradykinin B2 receptor (hB2R). The assay is defined herein as a standard in vitro B2 receptor activity assay, which can be used to determine IC50 values of the compounds according to the present invention, e. g. the compounds shown in Examples 1-4.
The antagonistic activity of compounds according to the present invention was investigated with the hB2R-CaM assay using the B2 Bradykinin Receptor Stable Cell Line HTS041C (Eurofins, St. Charles MO) and the FLIPR Calcium 6 Assay Kit (Molecular Devices, Wokingham, UK) according to the instructions of the providers. CaM assay measurements were performed with a Flexstation 3 System (Molecular Devices) which allows the precise addition of compounds (B2R antagonists) and bradykinin (B2R agonist) to the cells and adjacent continuous recording of the time-dependent CaM assay signals.
HTS041C cells were cultured in high glucose DMEM cell culture medium (Lonza) supplemented with 10% heat-inactivated FBS (PAN Biotech), 10 mM HEPES, Penicillin/Streptomycin (200 U/mL, 200 μg/mL), 1× non-essential amino acids (Lonza), and 250 μg/mL G418 (Invivogen) in cell incubator at 37° C. in a 5% CO2 atmosphere. One day before the CaM assay experiments cells were seeded in 200 μL DMEM cell culture medium with reduced FBS (5%) and without G418 on clear bottom black 96 well plates (ThermoFisher #165305). Cell starvation was carried out by incubation (37° C., 5% CO2) of 70.000 cells/well for 24 h to 28 h. Immediately prior calcium dye-loading the medium was carefully aspirated and cells were washed with Hank's balanced salt solution (HBSS, Gibco) containing Ca^2+, Mg^2+ and 20 mM HEPES, adjusted to pH 7.4 (HBSS+).
For calcium dye-loading one FLIPR 6 assay aliquot was dissolved in 20 mL HBSS+. 150 μL of the dye loading solution was added to cell plate and incubated for 120 min at 37° C. and 5% CO2. After dye loading the cell plate was immediately transferred to the pre-warmed (37° C.) Flexstation 3 System for CaM assaying.
Freshly prepared compound (B2 receptor antagonists) dilution series (8 pt, n=2) and bradykinin (B2 receptor agonist) solution in non-binding plates (Costar) were transferred to the Flexstation System (source plate) shortly before starting the experiment. Bradykinin was added in EC80 concentration determined in n>3 preliminary experiments with 8 pt concentration response curves (n=8)). CaM assay was executed by Flexstation 3 System starting with recording of calcium-sensitive dye fluorescence in bottom-read Flex modus with ex/em=485 nm/525 nm, cut off(em)=515 nm After 20 s, 50 μL of 4-fold concentrated compound dilutions were added to the cells resulting in a final DMSO (Sigma) concentration of 0.1% in the cell plate. CaM signals were monitored for 80 s after additions for detection of potential agonistic activities. Prior to bradykinin stimulus compound- and vehicle-treated cells were incubated for 25 min at 37° C. within the Flexstation System. Then 50 μL of a 5-fold concentrated bradykinin solution (HBSS+, 0.1% DMSO) was added to trigger CaM signals (Read out: Max-Min values) which were measured for 80 s post bradykinin stimulus.
IC50 determinations were performed by 4 parameter logistic model curve fitting of the 8 pt (n=2) compound concentration response curves using XLFIT (IDBS) software.

Row | SMILES | pIC50
1 | Cc1cc(-n2cc(F)cn2)c2cccc(OCc3c(Cl)cc(F)cc3[C@@H]3COCCN3C(=O)COC(F)F)c2n1 [Compound No. 1, (R)-1-(3-(3-chloro-5-fluoro-2-((4-(4-fluoro-1H-pyrazol-1-yl)-2-methylquinolin-8-yloxy)methyl)phenyl)morpholino)-2-(difluoromethoxy)ethanone] | ≥ 7.60
2 | [2H][C@@]1(c2cc(F)cc(Cl)c2COc2cccc3c(-n4cc(F)cn4)cc(C)nc23)COCCN1C(=O)COC(F)F [Compound No. 1A, 1-[(3R)-3-[3-chloro-5-fluoro-2-({[4-(4-fluoropyrazol-1-yl)-2-methylquinolin-8-yl]oxy}methyl)phenyl](3-deutero)morpholin-4-yl]-2-(difluoromethoxy)ethanone] | ≥ 7.60
3 | Cc1cc(-n2cc(F)cn2)c2cccc(OCc3c(Cl)cc(F)cc3[C@@H]3COCC(=O)N3)c2n1 [compound 4] | 5.30 to 6.30
4 | Cc1cc(-n2cc(F)cn2)c2cccc(OCc3c(Cl)cc(F)cc3[C@@H]3COCCN3C(=O)[C@@H](C)O)c2n1 [compound 6] | 6.30 to 7.59
5 | Cc1cc(-n2cc(F)cn2)c2cccc(OCc3c(Cl)cc(F)cc3[C@@H]3COCCN3C(=O)C(C)(C)O)c2n1 [compound 7] | 6.30 to 7.59
6 | Cc1cc(-c2ncnn2C)c2cccc(OCc3c(Cl)cc(F)cc3[C@@H]3COCCN3C(=O)C(C)(C)O)c2n1 [compound 9] | 6.30 to 7.59
7 | Cc1cc(-c2ncnn2C)c2cccc(OCc3c(Cl)cc(F)cc3[C@@H]3COCCN3C(=O)c3cnco3)c2n1 [compound 11] | ≥ 7.60
8 | Cc1cc(-c2ncnn2C)c2cccc(OCc3c(Cl)cc(F)cc3[C@@H]3COCC(=O)N3)c2n1 [compound 12] | 6.30 to 7.59

Further lines, results first:

Row | pIC50 | SMILES
9 | ≥ 7.60 | Cc1cc(-c2ncnn2C)c2cccc(OCc3c(Cl)cc(F)cc3[C@@H]3COCCN3C(=O)COC(F)F)c2n1 [Compound No. 2, (R)-1-(3-(3-chloro-5-fluoro-2-((2-methyl-4-(1-methyl-1H-1,2,4-triazol-5-yl)quinolin-8-yloxy)methyl)phenyl)morpholino)-2-(difluoromethoxy)ethanone]
10 | 5.30 to 6.30 | CC1=N[C@H](c2cc(F)cc(Cl)c2COc2cccc3c(-n4cc(F)cn4)cc(C)nc23)CO1 [Compound No. 3, (R)-4-(3-chloro-5-fluoro-2-((4-(4-fluoro-1H-pyrazol-1-yl)-2-methylquinolin-8-yloxy)methyl)phenyl)-2-methyl-4,5-dihydrooxazole]
11 | 5.30 to 6.30 | Cc1cc(-n2cc(F)cn2)c2cccc(OCc3c(Cl)cc(F)cc3[C@@H]3COCCN3)c2n1 [compound 5]
12 | 6.30 to 7.59 | Cc1cc(-n2cc(F)cn2)c2cccc(OCc3c(Cl)cc(F)cc3[C@@H]3COCCN3C(=O)c3cnco3)c2n1 [compound 8]
13 | ≥ 7.60 | Cc1cc(-c2ncnn2C)c2cccc(OCc3c(Cl)cc(F)cc3[C@@H]3COCCN3C(=O)[C@H](C)O)c2n1 [compound 10]
14 | 6.30 to 7.59 | Cc1cc(-c2ncnn2C)c2cccc(OCc3c(Cl)cc(F)cc3[C@@H]3COCCN3)c2n1 [compound 13]
